Results from publication PMC13065080, “Discovery of a potent anti-Zika virus benzamide series targeting the viral protein NS4B” (PLOS Pathogens, 2026).
Read-outs that look alike come from different tables or passages of the source.

Key:
ZIKV-RLuc = assay: microbe, parasite or virus in culture; type: cell-based, Zika virus; details: for Fold-change of EC50, Wt: ZIKV RLuc assay, reference
CHIKV = assay: microbe, parasite or virus in culture; type: cell-based; details: Vero 76; read-out: EC50-CPE CHIKV
ZIKV NS4B = ZIKV NS4B (Zika virus, UniProt A0A142I5B9); assay: biochemical; type: binding
ZIKV PLCal [1] = assay: Virus yield (titer) reduction assay in Huh 7.5.1 cells; type: cell-based, Zika virus; details: 1 µM
ZIKV PLCal [2] = assay: CPE-based anti-ZIKV concentration-response assay (96-well); type: cell-based, Zika virus
ZIKV-RLuc NS4B V248G = type: cell-based, Zika virus
ZIKV-RLuc NS4B A245T = type: cell-based, Zika virus
in vitro = details: African green monkey, CC50 Vero76
ZIKV-RLuc NS4B V241L = type: cell-based, Zika virus
[3] = wild type ZIKV-RLuc, Vero 76, MOI 0.1, three days, read-out: EC50 ZIKV-RLuc
[4] = Zika virus, 72 h, Vero 76, MOI 0.05, 3-day incubation, CellTiter-Glo, read-out: EC50-CPE ZIKV-PLCal
[5] = Zika virus, Fig 7, read-out: CPE EC50
[6] = Zika virus, Vero 76, 72 h, wild type ZIKV-RLuc, Vero 76, MOI 0.1, three days, read-out: EC50 ZIKV-RLuc
[7] = Zika virus, Fig 7, read-out: RLuc EC50
[8] = Vero 76, MOI 0.05, 3-day incubation, CellTiter-Glo, read-out: EC50-CPE ZIKV-PLCal

COc1ccc(C(C)NC(=O)c2ccc(C(C)(C)C)cc2)cc1 (racemic) [MWAC-3489]
EC50 (ZIKV-RLuc; [3]): 1.22 ± 0.86 µM
EC50 (CHIKV): > 50 µM

CC(C)(C)c1ccc(C(=O)N2C[C@H](C(=O)O)[C@@H](c3cccc(F)c3)C2)cc1 (relative stereo) [MWAC-3533]
EC50 (ZIKV-RLuc; Zika virus, Vero 76, 72 h, read-out: EC50 ZIKV-RLuc): ~16 µM
Kd (ZIKV NS4B): ~35 µM
19F-NMR signal change with ZIKV NS4B (ZIKV NS4B; compound 50 µM): shifted by the presence of ZIKV NS4B in a concentration-dependent manner

CC(C)(C)c1ccc(C(=O)N[C@@H]2C[C@H]3CC[C@@H]2C3)cc1 (relative stereo) [MWAC-3989, N-((exo)-bicyclo[2.2.1]heptan-2-yl)-4-(tert-butyl)benzamide]
VYR: Virus Yield reduction (Log 10) (ZIKV PLCal [1]): -0.18 ± 0.14 Log 10
EC50 (ZIKV PLCal [2]; [4]): 0.46 ± 0.1 µM
EC50 (ZIKV PLCal [2]; [5]): 0.34 µM
EC50 (ZIKV-RLuc NS4B V248G): 4 ± 0.76 µM
EC50 (ZIKV-RLuc NS4B A245T): 0.45 ± 0.05 µM
CC50 (in vitro): > 50 µM
EC50 (ZIKV-RLuc; [6]): 0.07 ± 0.007 µM
EC50 (ZIKV-RLuc; [7]): 0.115 µM
EC50 (ZIKV-RLuc; [3]): 0.13 ± 0.068 µM
EC50 (ZIKV-RLuc NS4B V241L): 10.6 ± 2.04 µM

CC(C)(C)c1ccc(C(=O)N[C@H]2C[C@H]3CC[C@@H]2C3)cc1 (relative stereo) [MWAC-3992, N-((endo)-bicyclo[2.2.1]heptan-2-yl)-4-(tert-butyl)benzamide]
VYR: Virus Yield reduction (Log 10) (ZIKV PLCal [1]): -1.20 ± 0.09 Log 10
EC50 (ZIKV PLCal [2]; [5]): 0.94 µM
EC50 (ZIKV-RLuc NS4B V248G): 16.8 ± 2.54 µM
EC50 (ZIKV-RLuc NS4B A245T): 2.77 ± 0.31 µM
CC50 (in vitro): 63 µM
EC50 (ZIKV-RLuc; [6]): 0.34 ± 0.018 µM
EC50 (ZIKV-RLuc; [7]): 0.58 µM
EC50 (ZIKV-RLuc NS4B V241L): 27.5 µM

CC(C)(C)c1ccc(C(=O)NC2CCS(=O)(=O)C2)cc1 (centres unmarked) [MWAC-3506]
EC50 (ZIKV PLCal [2]; [4]): > 50 µM
CC50 (in vitro): > 50 µM
EC50 (ZIKV-RLuc; [6]): > 50 µM

CC(C)(C)c1ccc(C(=O)NC2CC3CCC2C3)cc1 (centres unmarked) [MWAC-3508]
VYR: Virus Yield reduction (Log 10) (ZIKV PLCal [1]): -0.93 ± 0.07 Log 10
EC50 (ZIKV PLCal [2]; [5]): 0.36 µM
EC50 (ZIKV-RLuc NS4B V248G): 4.37 ± 0.37 µM
EC50 (ZIKV-RLuc NS4B A245T): 0.81 ± 0.11 µM
CC50 (in vitro): > 50 µM
EC50 (ZIKV-RLuc; [6]): 0.11 ± 0.002 µM
EC50 (ZIKV-RLuc; [7]): 0.15 µM
EC50 (ZIKV-RLuc NS4B V241L): 13.2 ± 1.87 µM

CC(C)(C)c1ccc(C(=O)NC2CCOC2)cc1 (centres unmarked) [MWAC-3509]
EC50 (ZIKV PLCal [2]; [4]): 18 µM
CC50 (in vitro): > 50 µM
EC50 (ZIKV-RLuc; [6]): 6.1 µM

CC(NC(=O)c1ccc(C(C)(C)C)cc1)c1ccncc1 (centres unmarked) [MWAC-3510]
EC50 (ZIKV PLCal [2]; [4]): > 50 µM
CC50 (in vitro): > 48 µM
EC50 (ZIKV-RLuc; [6]): 15 µM

CC(C)(C)c1ccc(C(=O)NC2CCN(Cc3ccccc3)CC2)cc1 [MWAC-3512]
EC50 (ZIKV PLCal [2]; [4]): 44 µM
CC50 (in vitro): 58 µM
EC50 (ZIKV-RLuc; [6]): 7.4 µM

O=C(NC1CC2CCC1C2)c1ccc(C2CC2)cc1 (stereo not drawn) [MWAC-3990, N-((exo)-bicyclo[2.2.1]heptan-2-yl)-4-cyclopropylbenzamide]
EC50 (ZIKV PLCal [2]; [8]): 33.1 ± 25.5 µM
CC50 (Vero76): 22.7 µM
EC50 (ZIKV-RLuc; [3]): 3.01 ± 1.11 µM

CC(C)c1ccc(C(=O)NC2CC3CCC2C3)cc1 (stereo not drawn) [MWAC-3991, N-((exo)-bicyclo[2.2.1]heptan-2-yl)-4-isopropylbenzamide]
EC50 (ZIKV PLCal [2]; [8]): 2.58 ± 1.39 µM
CC50 (Vero76): > 50 µM
EC50 (ZIKV-RLuc; [3]): 0.72 ± 0.22 µM

CC(C)(O)c1ccc(C(=O)NC2CC3CCC2C3)cc1 (stereo not drawn) [MWAC-3995, N-((exo)-bicyclo[2.2.1]heptan-2-yl)-4-(2-hydroxypropan-2-yl)benzamide]
EC50 (ZIKV PLCal [2]; [8]): 39 µM
CC50 (Vero76): > 50 µM
EC50 (ZIKV-RLuc; [3]): 13.9 µM

CCc1ccc(C(=O)NC2CC3CCC2C3)cc1 (stereo not drawn) [MWAC-3996, N-((exo)-bicyclo[2.2.1]heptan-2-yl)-4-ethylbenzamide]
EC50 (ZIKV PLCal [2]; [8]): 27.1 ± 16.8 µM
CC50 (Vero76): > 50 µM
EC50 (ZIKV-RLuc; [3]): 4.88 ± 1.36 µM

O=C(NC1CC2CCC1C2)c1ccc(C(F)(F)F)cc1 (stereo not drawn) [MWAC-3997, N-((exo)-bicyclo[2.2.1]heptan-2-yl)-4-(trifluoromethyl)benzamide]
EC50 (ZIKV PLCal [2]; [8]): 39 ± 15.3 µM
CC50 (Vero76): > 50 µM
EC50 (ZIKV-RLuc; [3]): 4.06 ± 1.17 µM

COC(C)(C)c1ccc(C(=O)NC2CC3CCC2C3)cc1 (stereo not drawn) [MWAC-3998, N-((exo)-bicyclo[2.2.1]heptan-2-yl)-4-(2-methoxypropan-2-yl)benzamide]
EC50 (ZIKV PLCal [2]; [8]): 2.72 ± 1.24 µM
CC50 (Vero76): > 50 µM
EC50 (ZIKV-RLuc; [3]): 0.76 ± 0.05 µM

CC(C)(C)c1ccc(C(=O)NC2CCCCC2)cc1 [MWAC-4000, 4-(tert-butyl)-N-cyclohexylbenzamide]
VYR: Virus Yield reduction (Log 10) (ZIKV PLCal [1]): -1.67 ± 0.10 Log 10
EC50 (ZIKV PLCal [2]; [5]): 0.21 µM
EC50 (ZIKV-RLuc NS4B V248G): 6.6 ± 0.53 µM
Fold-increase / fold-change of EC50, NS4B V248G vs wild type (ZIKV-RLuc NS4B V248G): 204.7
EC50 (ZIKV-RLuc NS4B A245T): 0.68 ± 0.09 µM
Fold-increase / fold-change of EC50, NS4B A245T vs wild type (ZIKV-RLuc NS4B A245T): 21.2
CC50 (in vitro): > 50 µM
Fold-change of EC50, Wt (ZIKV-RLuc): 1
EC50 (ZIKV-RLuc; [6]): 0.03 ± 0.003 µM
EC50 (ZIKV-RLuc; [7]): 0.09 µM
EC50 (ZIKV-RLuc NS4B V241L): 21.3 ± 4.87 µM
Fold-increase / fold-change of EC50, NS4B V241L vs wild type (ZIKV-RLuc NS4B V241L): 659.3

CC(C)(C)c1ccc(C(=O)NC2CCCCCC2)cc1 [MWAC-4001, 4-(tert-butyl)-N-cycloheptylbenzamide]
VYR: Virus Yield reduction (Log 10) (ZIKV PLCal [1]): -2.68 ± 0.36 Log 10
EC50 (ZIKV PLCal [2]; [5]): 0.09 µM
EC50 (ZIKV-RLuc NS4B V248G): 10.1 ± 0.81 µM
Fold-increase / fold-change of EC50, NS4B V248G vs wild type (ZIKV-RLuc NS4B V248G): 238.2
EC50 (ZIKV-RLuc NS4B A245T): 1.07 ± 0.16 µM
Fold-increase / fold-change of EC50, NS4B A245T vs wild type (ZIKV-RLuc NS4B A245T): 25.1
CC50 (in vitro): 12 µM
Fold-change of EC50, Wt (ZIKV-RLuc): 1
EC50 (ZIKV-RLuc; [6]): 0.04 ± 0.006 µM
EC50 (ZIKV-RLuc; [7]): 0.05 µM
EC50 (ZIKV-RLuc NS4B V241L): 24 µM
Fold-increase / fold-change of EC50, NS4B V241L vs wild type (ZIKV-RLuc NS4B V241L): 564.2

Cc1ccc(C(=O)NC2CC3CCC2C3)cc1 (stereo not drawn) [MWAC-4010, N-((exo)-bicyclo[2.2.1]heptan-2-yl)-4-methylbenzamide]
CC50 (Vero76): > 50 µM
